# In article PMC11094307, “Marine-derived EGFR inhibitors: novel compounds targeting breast cancer growth and drug resistance” (Frontiers in Pharmacology, 2024):
# What was measured:
# [1] = tested on: MCF-7 cells; experiment: MTT assay, MCF-7 growth inhibition; type: cell-based, human
# Experimental: Both mediums were enriched with 10% fetal bovine serum and 1% penicillin/streptomycin.
# Cells in the exponential growth phase were seeded into 96-well plates and allowed to adhere overnight. […] After 24 h, 20 µL of Methyl-thiazolyldiphenyl-tetrazolium bromide (MTT, 5 mg/mL, Thermo Fisher Scientific) was added to each well and incubated for a minimum of 4 h. Following the incubation, the medium containing the compounds and MTT was removed from each well, and 200 µL of dimethyl sulfoxide (DMSO) was added.
# All experiments were repeated at least three times, and the data are presented as mean ± standard deviation (SD). The statistical analyses were performed using Origin. EC50 or IC50 values were obtained by fitting the data to a four-parameter Hill model of the graph of log dose against percentage cell viability or inhibition from at least three sets of experiments. Difference between two groups were analyzed by Student’s t test (two-sided) and significance was set at p < 0.05. The specific details about statistical methods are introduced in respective figure legends.
# [2] = tested on: A549 cells; experiment: MTT assay, A549; type: cell-based, human; details: A549 (high EGFR-expressing), 10 μM
# Experimental: (§1) The cell lines MCF-7 and A431 were cultured in Dulbecco’s Modified Eagle’s Medium (DMEM, Gibco, USA), while HL-60, H1299, and A549 cells were maintained in RPMI-1640 medium (Gibco, USA). Both mediums were enriched with 10% fetal bovine serum and 1% penicillin/streptomycin. […] All cell cultures were incubated at 37°C in an atmosphere containing 5% CO2.
# (§2) Cells in the exponential growth phase were seeded into 96-well plates and allowed to adhere overnight. Subsequently, they were treated in triplicate with various concentrations of the compounds (0, 1.56, 3.13, 6.25, 12.5, 25, 50, 100 µM), […]. After 24 h, 20 µL of Methyl-thiazolyldiphenyl-tetrazolium bromide (MTT, 5 mg/mL, Thermo Fisher Scientific) was added to each well and incubated for a minimum of 4 h. Following the incubation, the medium containing the compounds and MTT was removed from each well, and 200 µL of dimethyl sulfoxide (DMSO) was added. The plates were then shaken for 10 min at 37°C to dissolve the formazan crystals. The absorbance was measured using a microplate reader (BioTek Synergy 4) at a wavelength of 490 nm.
# [3] = tested on: A431 cells; experiment: MTT assay, A431; type: cell-based, human; details: A431 (high EGFR-expressing), 10 μM
# Experimental: as §1, §2
# [4] = target: T1, EGFR (Homo sapiens, UniProt P00533); experiment: CETSA in MCF-7 cells; type: cell-based; details: for CETSA WB Normalized (Figure 3F): control 0 µM 0.614197892
# T1 construct: endogenous in cells; host or cells: MCF-7
# Experimental: In the CETSA, MCF-7 cells were treated with varying concentrations of Tandyukisin (5, 10, 20 µM) or a control solution of 0.2% DMSO for 24 h. Following treatment, cells were harvested and washed with PBS to eliminate any residual drug, then an equal number of cells were allocated into 0.2 mL PCR tubes. These cells were resuspended in 100 µL PBS supplemented with a complete protease inhibitor cocktail and subjected to a heating step at […] for 3 min. Post-heating, the cells underwent lysis through three cycles of freeze-thaw using liquid nitrogen, followed by centrifugation at 12,000g for 20 min at 4°C to separate the lysate. The clarified supernatant from each tube was then carefully transferred to fresh tubes for Western blotting.
# To confirm Tandyukisin directly bound EGFR in cells, CETSA was conducted. Currently, CETSA is widely used in drug target discovery assay and is based on the thermal stability changes after drugs bind to their targets ([Martinez Molina et al., 2013]; [Jafari et al., 2014]). After treatment with Tandyukisin at 5, 10, 20 μM for 24 h, the multiple aliquots of the cell suspension were heated at 55°C. The heated cells were subsequently lysed and centrifuged to separate soluble fractions from precipitated denatured EGFR. After thermal denaturation, EGFR in the soluble fraction was examined by Western blotting.
# [5] = target: T2, EGFR kinase domain (Homo sapiens, UniProt P00533); experiment: Differential Scanning Fluorimetry (DSF); type: binding; details: 10 µM; 52.6°C at 0 µM
# T2 construct: the intracellular tyrosine kinase (TK) domain of EGFR, tagged with GST; purchased Sinobiological, China
# Experimental: In the Differential Scanning Fluorimetry (DSF) study, concentrations of Tandyukisin-1.3, 2.5, 5, and 10 µM-were incubated with 0.05 mg/mL of the EGFR kinase domain. A control sample, containing only 5% DMSO, was used alongside the EGFR kinase domain. The thermal stability of the EGFR kinase domain was assessed using PR NT.48 (NanoTemper). The assay conditions were set to a temperature range of 25°C–95°C with a ramp rate of 1 °C/min.
# [6] = target: EGFR intracellular kinase domain (Homo sapiens, UniProt P00533); experiment: SPR binding (Biacore 8K); set-up: the intracellular tyrosine kinase (TK) domain of EGFR, tagged with GST; purchased Sinobiological, China; details: without ATP
# Description: The extracellular ligand-binding domain of EGFR, tagged with His, and the intracellular tyrosine kinase (TK) domain of EGFR, tagged with GST, were acquired from Sinobiological, China. Kinase assay systems for both wild-type EGFR and its mutants—T790M, L858R, and the dual L858R/T790M—were procured from Promega Corporation, USA. Cell lines including MCF-7, A549, A431, H1299, HL-60, and MCF-10A were obtained from the China Infrastructure Cell Line Resources.
# The binding affinities of compounds towards EGFR extracellular ligand binding domain and EGFR intracellular kinase domain were assayed using the SPR-based Biacore 8K instrument (Cytiva). Considering the purchased EGFR was fused with GST tag, GST alone was also immobilized on the chip to do the binding measurement. All the proteins were respectively immobilized on a CM5 sensor chip by using standard amine-coupling at 25°C with running buffer HEPES-P (20 mM HEPES buffer, […], 0.05% surfactant P20, pH 7.4). A reference channel was only activated and blocked to eliminate compound unspecific binding to the surface of the chip. The immobilization level of EGFR extracellular ligand binding domain, EGFR intracellular kinase domain and GST were all about 10,000 RU. […] Extra wash with 50% DMSO was added to remove the last remaining sample in the pipeline.
# T1 sequence (P00533 25-1210): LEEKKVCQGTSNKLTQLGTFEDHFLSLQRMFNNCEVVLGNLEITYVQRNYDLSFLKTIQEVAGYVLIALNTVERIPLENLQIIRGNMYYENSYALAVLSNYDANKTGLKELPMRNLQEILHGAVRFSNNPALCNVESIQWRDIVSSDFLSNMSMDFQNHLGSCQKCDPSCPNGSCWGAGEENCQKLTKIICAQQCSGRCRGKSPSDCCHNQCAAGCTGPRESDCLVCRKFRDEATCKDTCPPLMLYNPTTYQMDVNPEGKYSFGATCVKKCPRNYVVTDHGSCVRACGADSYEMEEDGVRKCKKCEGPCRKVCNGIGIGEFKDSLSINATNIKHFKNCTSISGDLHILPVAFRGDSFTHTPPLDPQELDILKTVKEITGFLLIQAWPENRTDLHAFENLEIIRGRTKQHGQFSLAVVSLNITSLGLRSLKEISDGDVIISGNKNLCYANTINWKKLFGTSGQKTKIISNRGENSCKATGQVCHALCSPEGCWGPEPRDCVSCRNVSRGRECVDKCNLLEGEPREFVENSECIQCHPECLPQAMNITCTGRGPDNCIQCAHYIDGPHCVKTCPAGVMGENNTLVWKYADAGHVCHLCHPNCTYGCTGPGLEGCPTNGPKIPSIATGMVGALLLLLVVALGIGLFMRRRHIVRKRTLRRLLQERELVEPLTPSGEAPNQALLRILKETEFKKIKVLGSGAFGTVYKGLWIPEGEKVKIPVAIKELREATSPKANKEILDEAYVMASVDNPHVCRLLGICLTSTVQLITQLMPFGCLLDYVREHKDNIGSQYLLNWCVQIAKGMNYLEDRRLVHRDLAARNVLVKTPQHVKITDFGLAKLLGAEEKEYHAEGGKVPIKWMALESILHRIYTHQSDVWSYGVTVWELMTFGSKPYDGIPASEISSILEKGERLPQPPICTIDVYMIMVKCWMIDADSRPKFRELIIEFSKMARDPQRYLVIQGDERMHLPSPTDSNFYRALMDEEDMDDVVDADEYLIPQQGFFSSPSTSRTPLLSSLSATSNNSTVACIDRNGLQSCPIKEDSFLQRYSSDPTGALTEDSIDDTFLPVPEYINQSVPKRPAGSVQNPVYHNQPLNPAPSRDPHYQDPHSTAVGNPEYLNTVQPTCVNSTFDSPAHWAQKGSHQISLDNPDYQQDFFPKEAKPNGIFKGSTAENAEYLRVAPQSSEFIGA
# Chain of EGFR intracellular kinase domain (P00533 712-979 limits assumed): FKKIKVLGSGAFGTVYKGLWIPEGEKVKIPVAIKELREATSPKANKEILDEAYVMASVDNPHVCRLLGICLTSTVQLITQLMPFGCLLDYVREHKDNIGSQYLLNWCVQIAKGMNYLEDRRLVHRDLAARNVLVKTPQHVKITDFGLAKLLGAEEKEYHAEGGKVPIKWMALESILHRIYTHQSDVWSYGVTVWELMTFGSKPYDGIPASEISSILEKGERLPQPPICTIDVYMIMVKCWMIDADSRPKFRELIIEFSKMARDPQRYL
# T2 sequence (P00533 712-979 limits assumed): as above
smiles,measurement,setting,value
COC(=O)C/C(C)=C/C(=O)O[C@@H]1C[C@@H](C)[C@H]2[C@@H](C=C[C@H](CC(C)C)[C@]2(C)C(=O)/C=C\O)[C@@H]1O [Tandyukisin],EC50,"[1]; Homo sapiens, MCF7, MTT, 24 h, read-out: EC50, MCF-7 cell viability",3 ± 1 µM
same,cell lethality percentage,"[1]; MCF-7, 10 μM",75.7% ± 2.3%
same,cell lethality percentage,[2],72.1% ± 1.8%
same,cell lethality percentage,[3],67.3% ± 2.7%
same,CETSA WB Gray Value (Figure 3F),[4]; 5 µM,29078.924
same,CETSA WB Normalized (Figure 3F),[4]; 5 µM,0.7019
same,CETSA WB Gray Value (Figure 3F),[4]; 10 µM,31150.702
same,CETSA WB Normalized (Figure 3F),[4]; 10 µM,0.8063
same,CETSA WB Gray Value (Figure 3F),[4]; 20 µM,42106.53
same,CETSA WB Normalized (Figure 3F),[4]; 20 µM,1.166
same,accumulation of EGFR in the soluble fraction (CETSA) compared with DMSO control,"[4]; MCF-7, 5, 10, 20 μM, 24 h, heated",markable increase
same,melting temperature (Tm) of EGFR kinase domain,[5],54.2 °C
same,Kd,[6],5.57 µM
same,kon,"[6]; Figure 4A-B, read-out: ka, EGFR kinase domain",3050 M⁻¹ s⁻¹
